Measured values reported in EPA's ToxValDB 9.5 (doi:10.2903/j.efsa.2013.3270).

Assays:
Pimephales promelas = conditions: chronic/long-term; duration: 35 days; other
Folsomia candida = conditions: chronic/long-term; duration: 28 days
Apis mellifera = conditions: acute, duration: 48 hours, mortality
Daphnia magna = conditions: chronic/long-term; duration: 21 days; reproduction
Anas platyrhynchos = conditions: chronic/long-term
Oncorhynchus mykiss = conditions: acute; duration: 96 hours; mortality
Tagia sp. = conditions: acute; duration: 14 days; mortality
Colinus virginianus = conditions: acute, oral, mortality
Typhlodromus pyri = test: LR50; higher = less toxic; conditions: not reported; mortality
Aphidius rhopalosiphi = test: LR50; higher = less toxic; conditions: not reported; mortality

For COC(=O)c1csc(C)c1S(=O)(=O)NC(=O)n1nc(OC)n(C)c1=O [Thiencarbazone-methyl], the NOEC (Pimephales promelas) was 4.8 mg/L, the NOEC (Folsomia candida) was 1000 mg/kg and the LD50 (Apis mellifera; dermal) was > 200 µg/piece. For the same compound, the LD50 (Apis mellifera; oral, unspecified) was > 199 µg/piece, the NOEC (Daphnia magna) was 3.54 mg/L and the LD50 (Rattus norvegicus; acute, oral, mortality) was > 2000 mg/kg-day. It also gave an NOEL (Rattus norvegicus; chronic) of 946 mg/kg-day, an NOAEL (Rattus norvegicus; chronic, duration: 2 years) of 22.8 mg/kg-day and an NOAEL (Rattus norvegicus; subchronic, duration: 90 days, oral) of 24.7 mg/kg-day. The NOEL (Anas platyrhynchos) was 24 mg/kg-day, the LC50 (Oncorhynchus mykiss) was > 104 µg/mL and the LC50 (Tagia sp.) was > 1000 mg/kg. For the same compound, the LD50 (Colinus virginianus; diet) was > 699 mg/kg-day, the LD50 (Colinus virginianus) was > 2000 mg/kg-day and the LR50 (Typhlodromus pyri) was > 0.45 g/ha. For the same compound, the LR50 (Aphidius rhopalosiphi) was > 45 g/ha.
